Experiment: in vitro
Conditions: human, hela cells, % viability

Row | SMILES | viability at 28.5 h, 10 µM [%]
1 | CCCS(=O)(=O)Nc1cccc(-c2nnn[nH]2)c1 [CBK155417] | 104
2 | Cc1nc(C)n(CC2CCCN2Cc2cn3ccccc3c2C#N)n1 (centres unmarked) [CBK304006] | 91
3 | O=C(COc1ccc(S(=O)(=O)N2CCc3ccccc32)cc1Cl)NCc1ccco1 [CBK268293] | 102
4 | Cc1cnc2[nH]c(C3CCCN(C(=O)c4cccnc4C)C3)cc2c1 (centres unmarked) [CBK285169] | 101
5 | CN(C)c1cccc(Nc2ccc(-c3ccco3)cn2)c1 [CBK036885] | 96.8
6 | CCCC(=O)N1CCCC1c1cc2n(n1)[C@@H](C(F)(F)F)C[C@@H](C)N2 (some centres unmarked) [CBK283003] | 92.4
7 | CC(C)(CN1CCCC1)NC(=O)c1cc(Cl)c(Cl)cc1C(=O)O [CBK287141] | 89
8 | NC(=S)Nc1nc(-c2ccc(Br)cc2)cs1 [CBK023259] | 100
9 | CN(Cc1ccc(-c2ccc(S(C)(=O)=O)cc2)cn1)C1CCN(C(=O)CC(C)(C)O)CC1 [CBK165684T] | 93.1
10 | O=C(CSc1nc2ccccc2c(=O)[nH]1)NCCO [CBK266469] | 96.2
11 | COc1ccc(C2(CNC(C)(C)CN)CCCC2)cc1OC [CBK008989] | 104
12 | O=S(=O)(c1ccccc1)c1ccccc1C(F)(F)F [CBK085887] | 104
13 | Cc1cc(C(=O)Nc2ccc(-c3nc4ccccc4s3)c(O)c2)ccc1[N+](=O)[O-] [CBK262820] | 92.6
14 | Cc1nc(C2CCCN(C(=O)CCn3cccn3)C2)c2sccn12 (centres unmarked) [CBK285234] | 86.7
15 | N#Cc1c(NC(=O)CSc2nc3ccccc3s2)oc(-c2ccccc2)c1-c1ccccc1 [CBK269019] | 97
16 | CN1CCN(c2ccccc2NC(=O)c2ccc3ccccc3c2)CC1 [CBK268486] | 96.1
17 | CC(C)CNC(=O)N(CCc1ccccc1)Cc1ccccc1 [CBK155339] | 93.8
18 | O=S1(=O)CC(NCc2ccccc2)C(Nc2ccccc2)C1 (centres unmarked) [CBK265797] | 91.7
19 | Cc1ccn(CC(=O)N2CC[C@H]3NC(=O)COc4ccccc4CCCC[C@@H]3C2)c(=O)c1 [CBK292045] | 99.2
20 | CCOCCN(CCOCC)c1nnc2ccc(Cl)nn12 [CBK010024] | 99.6
21 | O=c1c(N2CCNCC2)nccn1CCOc1cccc(Cl)c1Cl [CBK013463] | 92.2
22 | COC1CCCN(Cc2cncn2C2CCCCC2)C1 (centres unmarked) [CBK306542] | 101

Row | SMILES | viability at 28.5 h, 10 µM [%]
23 | c1ccc2c(c1)CCN2c1ncnc2[nH]cnc12 [CBK291104] | 100
24 | Cc1ncsc1CCOc1nc2cc(Cl)c(Cl)cc2nc1NC(C)C [CBK115744] | 88.6
25 | Cc1ncc(C(=O)NC2(c3ccccc3F)CCCC2)c(C)n1 [CBK283274] | 84.5
26 | Cc1ccc(-c2[nH]ncc2C(=O)c2ccccc2C)c(O)c1 [CBK287929] | 102
27 | Cc1nnc(CN2CCOc3ccc(Br)cc3C2)o1 [CBK304079] | 99
28 | CC1=NN(c2ccccc2)C(=O)/C1=C(/C)NNC(=O)c1ccccn1 [CBK261837] | 91.7
29 | CC(C)(C)C(=O)Nc1ccc(-c2ccc(NC(=O)C(C)(C)C)c(C(=O)O)c2)cc1C(=O)O [CBK261392] | 108
30 | Sc1nnc(-c2ccncc2)n1C1CCCCC1 [CBK288421] | 105
31 | Cc1cc(F)ccc1OC1(C(=O)O)CCN(Cc2ccoc2)CC1 [CBK307187] | 104
32 | CC(NS(=O)(=O)c1ccccc1Cl)C(=O)N1CCCCC1C (centres unmarked) [CBK305797] | 93.9
33 | CC(=O)C1=C(O)C(=O)N(CCN2CCOCC2)C1c1cccc([N+](=O)[O-])c1 (centres unmarked) [CBK264568] | 98
34 | O=[N+]([O-])c1ccccc1S(=O)(=O)N1CCN(c2ccccc2)CC1 [CBK261755] | 85.8
35 | CNC(=O)CSc1nnc(COc2cccc3ccccc23)n1-c1ccccc1 [CBK266043] | 102
36 | CC(=O)NCCCSCc1cn2cccc(C)c2n1 [CBK304809] | 98.5
37 | O=C(NCc1ccc(-c2csnn2)cc1)c1cccc(C(F)(F)F)c1 [CBK149293] | 87.2
38 | CCOc1cc(C(=O)O)ccc1OCCOc1cccc(C)c1 [CBK299781] | 91.6
39 | CC1NC(C(=O)O)Cc2c1[nH]c1ccccc21 (centres unmarked) [CBK218664] | 102
40 | O=S(=O)(Cc1ccccc1)Nc1cccc2[nH]ccc12 [CBK159490] | 76.6
41 | O=C(O)CCC(=O)Nc1ccc(Br)c2cccnc12 [CBK265186] | 105
42 | CC1CCN(C(=O)Cn2ncn3c(cc4ccsc43)c2=O)CC1 [CBK284190] | 101
43 | COc1ccc(OC)c(-c2nc(Nc3ccccc3C)sc2CC(=O)O)c1 [CBK126811] | 101
44 | C=CCC1c2cccc(C(=O)O)c2C(=O)N1c1ccc(F)cc1 (centres unmarked) [CBK113158] | 94.1

Row | SMILES | viability at 28.5 h, 10 µM [%]
45 | CCc1nnc(SCC(=O)Nc2cccc(OC)c2)[nH]1 [CBK270226] | 93.7
46 | CCOC(=O)c1c(CSc2ccc(Cl)cc2)n(C)c2cc(Br)c(O)c(CN(C)C)c12 [CBK217489C] | 108
47 | O=C(NC1CCCCCC1)c1[nH]nc(O)c1Cc1c(Cl)cccc1Cl [CBK107847] | 91.9
48 | C=C(C)Cn1c(SCC(C)C)nnc1-c1cccs1 [CBK200086] | 96.5
49 | CC(C)(C)OC(=O)NCc1ccc(CNCc2ccccc2C(F)(F)F)cc1 [CBK056703] | 92.2
50 | N#Cc1ccc(C(=O)N2C[C@@H]3C[C@H](C2)c2ccc(-c4cccs4)c(=O)n2C3)cc1 [CBK289180] | 86
51 | O=C(NCc1ccncc1)c1csc2c(C(F)(F)F)cc(N3CCN(Cc4ccccc4)CC3)nc12 [CBK034294T] | 98.6
52 | Nc1ncc(-c2cccc3ccccc23)nc1NC1CCCCC1 [CBK063588] | 94
53 | COc1ccc(NCc2cc(I)c(OCc3ccccc3)c(OC)c2)cc1 [CBK074452] | 106
54 | CCOC(=O)c1c(NC(=O)CN2CCCCC2)sc2c1CCCC2=O [CBK263224] | 112
55 | CC(C)S(=O)(=O)n1ccn(-c2ccc(N(C)C)cc2)c1=O [CBK106600] | 95.7
56 | C[C@@H](Nc1cncc(-c2cccc(N)c2)n1)c1ccccc1 [CBK065273] | 87.1
57 | CC(Sc1nc(-c2cccnc2)ccc1C#N)C(=O)O (centres unmarked) [CBK267452] | 90.7
58 | Cc1cc(C[C@@H]2CCC[C@H]2NCc2ccncc2)on1 [CBK284934] | 98.6
59 | COc1ccc2[nH]c3c(c2c1)CCNC31CCN(CCSc2ccccc2)C1 (centres unmarked) [CBK084541T] | 92
60 | CNS(=O)(=O)c1cccc2c1CCN(C(=O)NC1CCOC1)C2 (centres unmarked) [CBK306172] | 106
61 | Cc1ccc(S(=O)(=O)N2CCC(n3c(=O)[nH]c4ccccc43)CC2)cc1Cl [CBK149691] | 90.8
62 | COc1ccc(Cn2nc(-c3nc(C)no3)c3ccccc32)cc1 [CBK105834] | 90.7
63 | O=C1OCc2ccc(NS(=O)(=O)c3ccc(OC(F)(F)F)cc3)cc21 [CBK043715] | 82.8
64 | CC1=CCC2C(=O)N(C(CC(C)C)C(=O)O)C(=O)C2C1 (centres unmarked) [CBK287172] | 94.6
65 | C=CCn1c(S)nnc1COc1cccc2ccccc12 [CBK267292] | 89.4
66 | O=C(Nc1cccc(Cl)c1)C1CCC(C(=O)Nc2cccc(Cl)c2)CC1 (centres unmarked) [CBK269136] | 85.8

Row | SMILES | viability at 28.5 h, 10 µM [%]
67 | O=C(N1CCC=C(F)C1)C12CCOCC1CN(c1ncccn1)C2 (centres unmarked) [CBK304264] | 91.3
68 | CC(=O)NCc1cccc(-c2cc(C(=O)Nc3ccc4c(c3)OCCO4)cnc2-c2cccnc2)c1 [CBK160658] | 88.6
69 | Cc1cc(C)n(CCCC(=O)NCCc2cn3ccccc3n2)n1 [CBK304414] | 94.6
70 | CC(C)c1ccc(C(C)NC(=O)Cn2cc(C(=O)NC3CCCC3)ccc2=O)cc1 (centres unmarked) [CBK286121] | 103
71 | CC(C)c1noc([C@@H]2Cc3[nH]cnc3CN2C(=O)Nc2ccccc2)n1 [CBK288969] | 86.5
72 | CC(=O)Nc1cc(C(=O)CSc2nnnn2-c2ccc(C)c(C)c2)ccc1O [CBK295143] | 90.9
73 | COc1ccccc1C/C(N)=N/OC(=O)COc1ccc2ccccc2c1 [CBK263730] | 89.7
74 | CCOC(=O)c1cccc(NS(=O)(=O)c2cc(Br)ccc2OC)c1 [CBK034336] | 63.3
75 | CCN(CC)CCN(C(=O)Nc1ccc(C(N)=O)cc1)C(C)c1ccc(OC)c(OC)c1 (centres unmarked) [CBK158962] | 108
76 | O=C(Cc1ccc(Cl)cc1Cl)NCCc1c[nH]c2ccc(Cl)cc12 [CBK159744] | 104
77 | CC1(c2ccco2)NC(=O)N(Cc2ncc(-c3cccs3)o2)C1=O (centres unmarked) [CBK305398] | 98.8
78 | O=C(c1ccc2ccccc2n1)N1CCC(F)CC1 [CBK200276] | 102
79 | O=C1NC2(CCC(=O)N(Cc3ccccc3)CC2)Nc2ccccc21 (centres unmarked) [CBK284439] | 89.8
80 | O=C(NC(=S)Nc1cccc(-c2nc3cc(Cl)ccc3o2)c1)c1ccccc1Br [CBK263973] | 95.8
81 | Cc1cc(COC(=O)N2CCCC(F)(F)C2)cc(C)n1 [CBK200151] | 125
82 | CC1=CCCN(C(=O)C23CCOCC2CN(c2ncc(F)cn2)C3)C1 (centres unmarked) [CBK304263] | 87.3
83 | OC(COc1ccc(OC(F)(F)F)cc1)CN1CCN(c2nc3ccc(Cl)cc3s2)CC1 (centres unmarked) [CBK074639] | 122
84 | CC(C)S(=O)(=O)n1c(=O)n(Cc2ccc(S(C)(=O)=O)cc2)c2ccccc21 [CBK106529] | 90.3
85 | CCCS(=O)(=O)N1CCN(S(=O)(=O)c2ccc(NC(C)=O)cc2)CC1 [CBK264288] | 96.6
86 | O=C(NCCOc1ccccc1)N1CCCC(CO)C1 (centres unmarked) [CBK156058] | 99.6
87 | O=C1Nc2ccccc2/C1=C/c1ccc(-c2cccc(C(=O)O)c2)o1 [CBK077952] | 89.4
88 | CCC1(C)CCCN(Cc2nnnn2-c2ccc(S(C)(=O)=O)cc2)C1 (centres unmarked) [CBK306180] | 113

Same assay, conditions: human, hela cells, % viability, bulk resorufin, single well

Row | SMILES | viability at 28.5 h, 10 µM [%]
89 | COc1ccc([C@]23CC[C@H](NC(=O)Nc4ccc(C#N)c(Cl)c4)C[C@H]2N(C)CC3)cc1OC [CBK066928T] | 94.9

Source: PMC12040169 (PLOS Biology, 2025)
